pIC50: −log10 of the molar value.
Legend:
[1] = system: human SKM-1 acute myeloid leukemia cells; test: SKM-1 antiproliferation cell-based assay (ATPlite); details: Homo sapiens, SKM-1, 96 h, SKM-1 antiproliferation assay, 4 days, Table C2
Summary of the method: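 Log-phase cells in RPMI 1640/15% FBS were seeded at 34722 cells/mL and exposed for 4 days to nine-concentration DMSO serial dilutions in triplicate. Viability was read as ATP luminescence (ATPlite 1step), and IC50 values came from variable-slope non-linear regression.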

[2] = target: T1, human BRD4 bromodomain II (Homo sapiens, UniProt O60885); test: Bromodomain binding assay (AlphaScreen), BRD4 BDII; details: AlphaScreen assay, Table C2; read-out: BRD4 BDII IC50
T1 construct: human BRD4 bromodomain II [based on Genbank NM_058243, residues 349-460]; host or cells: E. coli
Summary of the method: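 Tagged BRD4 BDI or BDII constructs, expressed in E. coli, competed against a K5/K8/K12/K16-acetylated biotin-H4 peptide. Proximity signal between bead pairs after room-temperature incubations gave concentration-response curves, from which IC50 was derived.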

Row | Compound | GI50 [1] [nM] | pIC50 [2]
1 | CN[C@H]1CCN(c2cncc(-c3cc(F)cc(-c4ccc(-n5ccn(C)c5=O)c(Cl)c4)c3O)c2)C1 [Example 476, (S)-1-(3-chloro-5′-fluoro-2′-hydroxy-3′-(5-(3-(methylamino)pyrrolidin-1-yl)pyridin-3-yl)-[1,1′-biphenyl]-4-yl)-3-methyl-1H-imidazol-2(3H)-one] | 0.3 to 30 | 9.00 to 11.00
2 | Cn1ccn(-c2ccc(-c3cc(F)cc(-c4cc(N5CCNCC5)c5cc[nH]c5c4)c3O)cc2Cl)c1=O [Example 479, 1-(3-chloro-5′-fluoro-2′-hydroxy-3′-(4-(piperazin-1-yl)-1H-indol-6-yl)-[1,1′-biphenyl]-4-yl)-3-methyl-1H-imidazol-2(3H)-one] | 0.3 to 30 | 8.00 to 9.00
3 | Cn1ccn(-c2ccc(-c3cc(F)cc(-c4ccnc(-c5cccnc5)c4)c3O)cc2Cl)c1=O [Example 480, 1−(3′-([2,3′-bipyridin]-4-yl)-3-chloro-5′-fluoro-2′-hydroxy-[1,1′-biphenyl]-4-yl)-3-methyl-1H-imidazol-2(3H)-one] | 300 to 3000 | 8.00 to 9.00
4 | Cn1ccn(-c2ccc(-c3cc(F)cc(-c4ccnc(-c5ccncc5)c4)c3O)cc2Cl)c1=O [Example 481, 1-(3′-([2,4′-bipyridin]-4-yl)-3-chloro-5′-fluoro-2′-hydroxy-[1,1′-biphenyl]-4-yl)-3-methyl-1H-imidazol-2(3H)-one] | 300 to 3000 | 8.00 to 9.00
5 | [2H]C([2H])([2H])n1ccn(-c2ccc(-c3cc(F)cc(-c4ccnc(N5CCNC[C@@H]5C)c4)c3O)cc2Cl)c1=O [Example 482, (S)-1-(3-chloro-5′-fluoro-2′-hydroxy-3′-(2-(2-methylpiperazin-1-yl)pyridin-4-yl)-[1,1′-biphenyl]-4-yl)-3-deuteromethyl-1H-imidazol-2(3H)-one] | 0.3 to 30 | 9.00 to 11.00
6 | Cn1ccn(-c2ccc(-c3cc(F)cc(-c4cncc(N5CC[C@H](N)C5)c4)c3O)cc2Cl)c1=O [Example 484, (S)-1-(3′-(5-(3-aminopyrrolidin-1-yl)pyridin-3-yl)-3-chloro-5′-fluoro-2′-hydroxy-[1,1′-biphenyl]-4-yl)-3-methyl-1H-imidazol-2(3H)-one] | 0.3 to 30 | 8.00 to 9.00
7 | Cn1ccn(-c2ccc(-c3cc(F)cc(-c4ccnc(N5CC[C@@H](O)[C@H](N)C5)c4)c3O)cc2Cl)c1=O [Example 487, 1-(3′-(2-((3R,4R)-3-amino-4-hydroxypiperidin-1-yl)pyridin-4-yl)-3-chloro-5′-fluoro-2′-hydroxy-[1,1′-biphenyl]-4-yl)-3-methyl-1H-imidazol-2(3H)-one] | 30 to 300 | 8.00 to 9.00

The remaining lines, values ahead:

Row | GI50 [1] [nM] | pIC50 [2] | Compound
8 | 30 to 300 | 8.00 to 9.00 | CN1CCN(c2ccc(-c3cc(F)cc(-c4ccc(=O)n(C5CCNCC5)c4)c3O)cc2Cl)C1=O [Example 477, 5-(3′-chloro-5-fluoro-2-hydroxy-4′-(3-methyl-2-oxoimidazolidin-1-yl)-[1,1′-biphenyl]-3-yl)-1-(piperidin-4-yl)pyridin-2(1H)-one]
9 | 0.3 to 30 | 9.00 to 11.00 | CN[C@H]1CCCN(c2cncc(-c3cc(F)cc(-c4ccc(-n5ccn(C)c5=O)c(Cl)c4)c3O)c2)C1 [Example 478, (S)-1-(3-chloro-5′-fluoro-2′-hydroxy-3′-(5-(3-(methylamino)piperidin-1-yl)pyridin-3-yl)-[1,1′-biphenyl]-4-yl)-3-methyl-1H-imidazol-2(3H)-one]
10 | ≥ 3000 | < 7.00 | CN1CCN(c2ccc(-c3cc(F)cc(-c4ccnc(N5CCNc6ccccc65)c4)c3O)cc2Cl)C1=O [Example 483, 1-(3-chloro-3′-(2-(3,4-dihydroquinoxalin-1(2H)-yl)pyridin-4-yl)-5′-fluoro-2′-hydroxy-[1,1′-biphenyl]-4-yl)-3-methylimidazolidin-2-one]
11 | 30 to 300 | 8.00 to 9.00 | Cn1ccn(-c2ccc(-c3cc(F)cc(-c4ccc(=O)n(C5CCNCC5)c4)c3O)cc2Cl)c1=O [Example 486, 5-(3′-chloro-5-fluoro-2-hydroxy-4′-(3-methyl-2-oxo-2,3-dihydro-1H-imidazol-1-yl)-[1,1′-biphenyl]-3-yl)-1-(piperidin-4-yl)pyridin-2(1H)-one]

— patent publication US20250179059A1 (The Regents of the University of California, priority 2021, published 2025)
